Experimental findings from US7008649B2, “Cancer treatment composition and method using natural plant essential oils with signal transduction modulators” (Ecosmart Techonlogies, Inc., priority 1998, dated 2006) are described below.

What all share (assay type): cell-based, human
For assay [1], the system named is MCF-7 cells. Kind of assay: Plant essential oil compounds against E2-induced cell growth, viable cell count (trypan blue, haemocytometer). The settings on record: 10 nM estrogen, 5 days of treatment; for protection against E2-induced abnormal cell growth: 1 ug/ml. The procedure: Various concentrations of plant essential oil compounds were tested against E2-induced cell growth to determine the lowest concentrations that antagonize the E2-induced cell growth. MCF-7 cells were cultured in growth medium supplemented with 10% fetal bovine serum (FBS). At 85% confluence, cells were sub-cultured in 6 well petri-dishes and supplemented with 5% FBS serum stripped medium, phenol red free for 24 hours prior to the treatment of different concentrations of the test chemicals. After 5 days of treatment cells were trypsinized and collected using an Eppendorf microcentrifuge. The cell pellets were resuspended in 1% trypan blue. Three aliquots (10 ul each) of the viable cell suspension was counted using a haemocytometer assay. Each sample was then counted three times and to obtain an average count. The compounds were tested in the presence of 10 nM estrogen (=2.7 ng estrogen/ml). Two wells per test concentration were used. This experiment was repeated two times. A control sample-received solvent only at <0.1% ethanol.

In assay [2] the test system is MCF-7 cells. Kind of assay: Mixed exposure of okadaic acid (OA) and plant essential oil compounds, 3H-thymidine incorporation (FIG. 5). The settings on record: 10 ug/ml plant essential oil compound + 1 nM okadaic acid, 24 hr, with or without 10 nM E2. On the procedure:
MCF-7 cells were cultured in growth medium supplemented with 10% fetal bovine serum (FBS). At 85% confluence, cells were sub-cultured in 6 well petri-dishes medium supplemented with 5% FBS serum stripped medium, phenol red free for 24 hours prior to the treatment of 10 ug/ml of each plant essential oil compound and 1 nM okadiac acid. After 24 hr treatment, cells were used to determine cell proliferation using ^3H-thymidine incorporation. Two hrs after cell incubation with 1 uCi ^3H-thymidine, the medium was withdrawn and the cells were washed with thymidine-free medium and 10% TCA prior to radioactive count. These test chemicals were tested in the presence of 10 nM estrogen (=2.7 ng estrogen/ml). Three wells per test concentration were used. This experiment was repeated two times. A control sample received solvent only at <0.1% ethanol.
On the technique in general: Incorporation of labelled thymidine or its analogues reports DNA synthesis.

Assay [3] deals with MCF-7 cells. The experiment in a line: Mixed exposure of plant essential oil compounds and forskolin (FK) on E2-induced breast cancer cell growth (FIG. 3). As to conditions: mixed exposure with forskolin (FK), 10 nM estrogen. The procedure: (§1) MCF-7 cells were cultured in growth medium supplemented with 10% fetal bovine serum (FBS). At 85% confluence, cells were sub-cultured in 6 well petri-dishes medium supplemented with 5% FBS serum stripped medium, phenol red free for 24 hours prior to the treatment of different concentrations of the test chemicals. Cells were either counted (5 days after treatment) or used to determine cell proliferation (24 hr after treatment) using ^3H-thymidine incorporation. To count the cell, cells were trypsinized, and collected using Eppendorf microcentrifuge. The cell pellets were resuspended in 1% trypan blue and three aliquots (10 ul each) of the viable cell suspension was counted using a haemocytometer assay. Each sample was then counted three times to obtain an average count. For thymidine incoroporation, 24 hr after cell treated with test mixture, cells were incubated with 1 uCi ^3H-thymidine. After 2 hr, the medium was withdrawn and the cells were washed with thymidine-free medium and 10% TCA prior to radioactive count. Plant essential oil compounds were tested in the presence of 10 nM estrogen (=2.7 ng estrogen/ml) using three wells per test concentration. This experiment was repeated two times. A control sample received solvent only at <0.1% ethanol. The data supports the involvement of cellular signaling proteins, particularly cAMP/PKA cascade in the E2-induced cell proliferation in human breast cancer cells as judged by the antiestrogenic activity of FK. However, different methods are required to evaluate antiestrogenic activity.

Assay [4] relates to MCF-7 cells. Kind of assay: Effect of geldanamycin (GM) on antiestrogenic activity of plant essential oil compounds against E2-induced cell growth (FIG. 4). The settings on record: mixed exposure with geldanamycin (GM), 10 nM estrogen. The procedure: as §1, with “The data supports the involvement of cellular signaling proteins, particularly cAMP/PKA cascade in the E2-induced cell proliferation in human breast cancer cells as judged by the antiestrogenic activity of FK. However, different methods are required to evaluate antiestrogenic activity.” left out

With `Cc1ccc(C(C)C)c(O)c1` [thymol], the “protection against the E2-induced cell proliferation” value in the assay with MCF-7 cells [1] (5 ug/ml) turned out to be 40%. The “synergism by OA of the antiestrogenic activity of the plant essential oil compound” value in the assay on MCF-7 cells [2] was “only in the absence of E2”. Besides, in the assay with MCF-7 cells [3], the “synergism by FK of the antiestrogenic activity of the plant essential oil compound” value (“synergism by FK” for short) is “not”.
On to `C=CCc1ccc(O)c(OC)c1` [eugenol], for which the “protection against E2-induced abnormal cell growth” value in the assay with MCF-7 cells [1] stood at 35%. Also, in the assay on MCF-7 cells [4], the “synergism by GM of the antiestrogenic activity against E2 induced cell growth” value is “synergizes”. Moreover, the “synergism by OA of the antiestrogenic activity of the plant essential oil compound” value in the assay on MCF-7 cells [2] was “regardless of the absence or presence of E2”. Moreover, in the assay on MCF-7 cells [3], the “synergism by FK” value is listed as “synergizes”.
In the case of `CC=Cc1ccc(O)c(OC)c1` [isoeugenol], in the assay on MCF-7 cells [1], the “protection against E2-induced abnormal cell growth” value turned out to be 25%. For the same compound, the “protection against the E2-induced abnormal cell growth” value with MCF-7 cells [1] (concentration not given) is “approximately 75%”. For the same compound, the “synergism by FK” value with MCF-7 cells [3] is given as “not”.
With `O=C/C=C/c1ccccc1` [Cinnamic aldehyde], the “protection against the E2-induced abnormal cell growth” value in the assay with MCF-7 cells [1] (10 μg/ml) is “approximately 75%”. Besides, the “synergism by FK” value in the assay with MCF-7 cells [3] is given as “synergizes”.
